From patent US11827644B2, “Pyrazine derivative and application thereof in inhibiting SHP2” (SUZHOU GENHOUSE PHARMACEUTICAL CO., LTD, priority 2019, dated 2023) come the findings set out here.

This assay addresses SHP2 (Homo sapiens (Human), UniProt Q06124). The assay is described as follows: SHP2 allosteric inhibition experiment (DiFMUP fluorescence). The format is biochemical. To be noted: 0.5 nM SHP2 activated with 0.5 μM peptide IRS1_pY1172(dPEG8)pY1222; substrate DiFMUP; 25° C.; read-out: IC50 values of compounds inhibiting SHP2. From the text: SHP2 allosteric inhibition experiment
SHP2 is allosterically activated through the activation of a bis-tyrosyl-phosphorylated peptide and Src Homology 2 (SH2) domains. The activation steps followed result in the release of the auto-inhibition interface, which in turn activates the SHP2 protein tyrosine phosphatase (PTP) and can be used for substrate recognition and reaction catalysis. The SHP2 catalytic activity is monitored by a rapid fluorescent mode with the alternative substrate DiFMUP.
The phosphatase reaction was conducted in 384-well black polystyrene plates (Corning, Cat #3575) with flat bottom, low edge and non-binding surface at room temperature and 25 μl final volume of the following buffer condition: 60 mM HEPES, pH 7.2, 75 mM NaCl, 75 mM KCl, 1 mM EDTA, 0.05% P-20, 5 mM DTT.
The following experiments were conducted to monitor the SHP2 inhibition by the compounds (at concentrations of 0.0003-100 μM) in this invention:
Wherein, incubate 0.5 nM SHP2 with 0.5 μM peptide IRS1_pY1172 (dPEG8) pY1222 (sequence: H2N-LN (pY) IDLDLV (dPEG8) LST (pY) ASINFQK-amide) (SEQ ID NO: 1) (WO2016/203406A1). After incubation at 25° C. for 30-60 minutes, the alternative substrate DiFMUP (Invitrogen, cat #D6567) was added to the reaction and incubated at 25° C. for 30 minutes. The reaction was then carefully […] by adding 5 μL of a 160 μM bpV (Phen) solution (Enzo Life Sciences cat #ALX-270-204). The fluorescence signal was monitored using a microplate reader (VARIOSKAN LUX, Thermo) with excitation and emission wavelengths of 340 nm and 450 nm, respectively. The inhibitory dose-response curve is analyzed using a standardized IC50 regression curve based on control-based normalization.

SHP2, sequence (Q06124 whole entry): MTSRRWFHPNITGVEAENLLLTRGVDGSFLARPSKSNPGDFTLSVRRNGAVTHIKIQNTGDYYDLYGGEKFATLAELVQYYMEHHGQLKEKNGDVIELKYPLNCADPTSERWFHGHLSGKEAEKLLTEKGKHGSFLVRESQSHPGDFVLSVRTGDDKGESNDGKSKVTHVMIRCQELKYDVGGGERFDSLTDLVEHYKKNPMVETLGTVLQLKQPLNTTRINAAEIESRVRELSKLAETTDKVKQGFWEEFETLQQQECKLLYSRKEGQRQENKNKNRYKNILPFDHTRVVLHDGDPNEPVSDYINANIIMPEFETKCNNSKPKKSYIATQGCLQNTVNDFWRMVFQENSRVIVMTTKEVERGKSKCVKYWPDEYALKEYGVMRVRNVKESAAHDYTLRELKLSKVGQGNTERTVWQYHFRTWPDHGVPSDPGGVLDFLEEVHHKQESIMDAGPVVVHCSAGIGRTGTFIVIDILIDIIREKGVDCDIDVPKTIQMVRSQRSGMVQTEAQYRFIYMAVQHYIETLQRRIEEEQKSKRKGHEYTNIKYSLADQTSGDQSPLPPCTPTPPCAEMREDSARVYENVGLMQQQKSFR

Usually IC50 stands for the concentration at which inhibition is half-maximal. Turning to `Cc1coc(-c2cccc(Sc3cnc(N4CCC5(CC4)CO[C@@H](C)[C@H]5N)cn3)c2Cl)n1` [Example 24], the IC50 turned out to be 2.41 nM.
The value for `Cc1csc(-c2cccc(Sc3cnc(N4CCC5(CC4)CO[C@@H](C)[C@H]5N)cn3)c2Cl)n1` [Example 18] was 7.93 nM; that for `C[C@@H]1OCC2(CCN(c3cnc(Sc4cccc(-c5nc(C#N)co5)c4Cl)cn3)CC2)[C@@H]1N` [Example 15] was 4.06 nM.
Take `C[C@@H]1OCC2(CCN(c3cnc(Sc4cccc(NC(=O)c5c(O)nc6n(c5=O)CCCC6)c4Cl)cn3)CC2)[C@@H]1N` [Example 11]: the IC50 amounted to 0.31 nM.
For `C[C@@H]1OCC2(CCN(c3cnc(Sc4cccc(-c5cnc6ccnn6c5)c4Cl)cn3)CC2)[C@@H]1N` [Example 29] the value was 6.62 nM.
Regarding `C[C@@H]1OCC2(CCN(c3cnc(Sc4cccc(-c5nc(C#N)co5)c4Cl)cn3)CC2)[C@@H]1N` [Example 27], the IC50 is 3.51 nM.
The value for `C[C@@H]1OCC2(CCN(c3cnc(Sc4cccc(Nc5ncccn5)c4Cl)cn3)CC2)[C@@H]1N` [Example 43] was 7.5 nM; that for `C[C@@H]1OCC2(CCN(c3cnc(Sc4cccc(NC(=O)c5ccn(C)n5)c4Cl)cn3)CC2)[C@@H]1N` [Example 12] was 3.59 nM; that for `C[C@@H]1OCC2(CCN(c3cnc(Sc4cccc(NC(=O)c5ccccc5O)c4Cl)cn3)CC2)[C@@H]1N` [Example 37] was 9.01 nM.
The value for `C[C@@H]1OCC2(CCN(c3cnc(Sc4cccc(-c5ncccn5)c4Cl)cn3)CC2)[C@@H]1N` [Example 9] was 6.61 nM.
For `C[C@@H]1OCC2(CCN(c3cnc(Sc4cccc(-c5ccn6nccc6n5)c4Cl)cn3)CC2)[C@@H]1N` [Example 32] the value was 2.82 nM; for `CCn1cc(-c2cccc(Sc3cnc(N4CCC5(CC4)CO[C@@H](C)[C@H]5N)cn3)c2Cl)cn1` [Example 40], 4.4 nM.
On to `C[C@@H]1OCC2(CCN(c3cnc(Sc4cccc(-c5cnn6cccnc56)c4Cl)cn3)CC2)[C@@H]1N` [Example 23], for which the IC50 stood at 3.28 nM.
On to `C[C@@H]1OCC2(CCN(c3cnc(Sc4cccc(Nc5cnccn5)c4Cl)cn3)CC2)[C@@H]1N` [Example 2], for which the IC50 was determined as 2.71 nM.
`CCn1ccc(-c2cccc(Sc3cnc(N4CCC5(CC4)CO[C@@H](C)[C@H]5N)cn3)c2Cl)n1` [Example 25]: the IC50 came out at 1.74 nM.
For `C[C@@H]1OCC2(CCN(c3cnc(Sc4cccc(NC(=O)c5ccccc5C(=O)O)c4Cl)cn3)CC2)[C@@H]1N` [Example 22] the value was 1.72 nM.
Turning to `C[C@@H]1OCC2(CCN(c3cnc(Sc4cccc(-c5cn6ccnc6cn5)c4Cl)cn3)CC2)[C@@H]1N` [Example 26], the IC50 turned out to be 6.33 nM.
The value for `C[C@@H]1OCC2(CCN(c3cnc(Sc4cccc(-c5cnn(CCO)c5)c4Cl)cn3)CC2)[C@@H]1N` [Example 42] was 3.4 nM.
For `C[C@@H]1OCC2(CCN(c3cnc(Sc4cccc(NC(=O)c5cc(Cl)ccc5O)c4Cl)cn3)CC2)[C@@H]1N` [Example 38], the IC50 was determined as 9.41 nM.
`C[C@@H]1OCC2(CCN(c3cnc(Sc4cccc(-c5nc(C(=O)O)co5)c4Cl)cn3)CC2)[C@@H]1N` [Example 20]: the IC50 worked out at 1.27 nM.
Take `C[C@@H]1OCC2(CCN(c3cnc(Sc4cccc(-c5nccs5)c4Cl)cn3)CC2)[C@@H]1N` [Example 34]: the IC50 was 5.34 nM.
For the molecule `C[C@@H]1OCC2(CCN(c3cnc(Sc4cccc(N5CCCC5)c4Cl)cn3)CC2)[C@@H]1N` [Example 4], the half-maximal inhibitory concentration (IC50) amounted to 7.88 nM.
As for `Cc1ncsc1-c1cccc(Sc2cnc(N3CCC4(CC3)CO[C@@H](C)[C@H]4N)cn2)c1Cl` [Example 16], the IC50 is 4.9 nM.
As to `C[C@@H]1OCC2(CCN(c3cnc(Sc4cccc(-c5ccc(C#N)o5)c4Cl)cn3)CC2)[C@@H]1N` [Example 21], the IC50 amounted to 6.01 nM.
Turning to `C[C@@H]1OCC2(CCN(c3cnc(Sc4cccc(NC(=O)c5cc6n(n5)CCC6)c4Cl)cn3)CC2)[C@@H]1N` [Example 39], the IC50 turned out to be 8.3 nM.
The value for `C[C@@H]1OCC2(CCN(c3cnc(Sc4cccc(N5CCCC5=O)c4Cl)cn3)CC2)[C@@H]1N` [Example 1] was 7.69 nM.
For `C[C@@H]1OCC2(CCN(c3cnc(Sc4cccc(-c5cnccn5)c4Cl)c(N)n3)CC2)[C@@H]1N` [Example 8] the value was 5.12 nM; for `C[C@@H]1OCC2(CCN(c3cnc(Sc4cccc(-c5cccs5)c4Cl)cn3)CC2)[C@@H]1N` [Example 28], 9.4 nM; for `C[C@@H]1OCC2(CCN(c3cnc(Sc4cccc(-c5ncco5)c4Cl)cn3)CC2)[C@@H]1N` [Example 3], 1.26 nM.
For `C[C@@H]1OCC2(CCN(c3cnc(Sc4cccc(NC(=O)c5ncccn5)c4Cl)cn3)CC2)[C@@H]1N` [Example 35] the value was 2.91 nM; for `C[C@@H]1OCC2(CCN(c3cnc(Sc4cccc(Nc5cnn(C)c5)c4Cl)cn3)CC2)[C@@H]1N` [Example 44], 7.3 nM.
`C[C@@H]1OCC2(CCN(c3cnc(Sc4cccc(-c5cnc6[nH]ccc6n5)c4Cl)cn3)CC2)[C@@H]1N` [Example 41]: the IC50 was 6.2 nM.
For `C[C@@H]1OCC2(CCN(c3cnc(Sc4cccc(NC(=O)c5cc(F)c(F)cc5Cl)c4Cl)cn3)CC2)[C@@H]1N` [Example 13] the value was 5.88 nM.
The value for `C[C@@H]1OCC2(CCN(c3cnc(Sc4cccc(-c5cnccn5)c4Cl)cn3)CC2)[C@@H]1N` [Example 6] was 1.31 nM.
Regarding `C[C@@H]1OCC2(CCN(c3cnc(Sc4cccc(NC(=O)c5cc6n(n5)CCCC6)c4Cl)cn3)CC2)[C@@H]1N` [Example 30], the IC50 amounted to 6.45 nM.
`C[C@@H]1OCC2(CCN(c3cnc(Sc4cccc(NC(=O)c5cccc(F)c5Cl)c4Cl)cn3)CC2)[C@@H]1N` [Example 10]: the IC50 worked out at 5.1 nM.
The value for `C[C@@H]1OCC2(CCN(c3cnc(Sc4cccc(-c5nc(C#N)cs5)c4Cl)cn3)CC2)[C@@H]1N` [Example 17] was 4.35 nM.
On to `C[C@@H]1OCC2(CCN(c3cnc(Sc4cccc(-c5nc(C(N)=O)co5)c4Cl)cn3)CC2)[C@@H]1N` [Example 19], for which the IC50 stood at 1.95 nM.
The value for `C[C@@H]1OCC2(CCN(c3cnc(Sc4cccc(N5C(=O)C6CC6C5=O)c4Cl)cn3)CC2)[C@@H]1N` (stereo partly shown) [Example 31] was 7.91 nM; that for `C[C@@H]1OCC2(CCN(c3cnc(Sc4cccc(-c5nc6ccccc6o5)c4Cl)cn3)CC2)[C@@H]1N` [Example 14] was 9.24 nM.
The value for `C[C@@H]1OCC2(CCN(c3cnc(Sc4ccnc(-c5cnccn5)c4Cl)cn3)CC2)[C@@H]1N` [Example 7] was 41.6 nM; that for `C[C@@H]1OCC2(CCN(c3cnc(Sc4cccc(NC(=O)c5c(O)nc6ccccn6c5=O)c4Cl)cn3)CC2)[C@@H]1N` [Example 36] was 6.42 nM; that for `C[C@@H]1OCC2(CCN(c3cnc(Sc4cccc(-c5ccn(C)n5)c4Cl)cn3)CC2)[C@@H]1N` [Example 5] was 2.12 nM.
